Laboratory results published in EPA's ToxValDB 9.5 (doi:10.2903/j.efsa.2010.1707).
In brackets after ≈: the same amount, converted by molar mass.

How the values were obtained:
Oryctolagus sp. = settings: developmental; development
Pimephales promelas = settings: chronic/long-term; duration: 34 days; other
Daphnia magna = settings: chronic/long-term; duration: 21 days; growth
Cyprinodon variegatus = settings: acute; duration: 96 hours; mortality
Rattus norvegicus = settings: oral
Canidae = settings: chronic; duration: 1 years; oral; Dog Other; clinical chemistry
Folsomia candida = settings: chronic/long-term; duration: 28 days
Bibionidae = settings: chronic/long-term; duration: 28 days
Oncorhynchus mykiss = settings: acute; duration: 96 hours; mortality
Apis mellifera = settings: acute; duration: 48 hours; oral; unspecified; mortality
Aphidius rhopalosiphi = assay: LR50; higher = less toxic; settings: not reported; mortality
Typhlodromus pyri = assay: LR50; higher = less toxic; settings: not reported; mortality

CCCN(CCC)c1c([N+](=O)[O-])cc(S(N)(=O)=O)cc1[N+](=O)[O-] [Oryzalin]
LD50 (Colinus virginianus; acute, oral, diet, mortality): > 691 mg/kg-day | NOEL (Colinus virginianus; reproduction developmental): 28 mg/kg-day | NOAEL (Oryctolagus sp.): 25 mg/kg-day | NOEC (Pimephales promelas): 0.22 mg/L | NOEC (Daphnia magna): 0.36 mg/L | LC50 (Cyprinodon variegatus): > 3.04 µg/mL | LD50 (Rattus norvegicus; acute, mortality): > 5000 mg/kg-day | NOAEL (Rattus norvegicus; subchronic, duration: 90 days, hematological): 5 mg/kg-day | NOAEL (Canidae): 5 mg/kg-day | NOEC (Folsomia candida): 34.3 mg/kg | NOEC (Bibionidae): 1 mg/L | LC50 (Oncorhynchus mykiss): 2.86 µg/mL (≈ 8.26 µM) | LC50 (Tagia sp.; acute, duration: 14 days, mortality): > 103 mg/kg | NOEC (Tagia sp.; chronic/long-term, duration: 56 days): 34.3 mg/kg | LD50 (Apis mellifera): 32 µg/piece | NOEL (Anas platyrhynchos; reproductive): 41 mg/kg-day | LD50 (Anas platyrhynchos; short-term, oral, feed, mortality): > 1350 mg/kg-day | LR50 (Aphidius rhopalosiphi): > 3850 g/ha | LR50 (Typhlodromus pyri): < 3850 g/ha
